{
  "source": "patent EP3431468B1",
  "about": "“USE OF ADIPONECTIN RECEPTOR AGONISTS IN TREATING DEPRESSION, ANXIETY AND NEUROINFLAMMATION” (CENTRE NATIONAL DE LA RECHERCHE SCIENTIFIQUE, priority 2017, dated 2019)",
  "key": {"[1]": {"assay": "Weight, food and water intake under chronic treatment", "format": "in vivo, mice", "conditions": "chronic AdipoRon treatment", "procedure": "Three well-established mouse models of depression-like behavior have been used in the present study namely i- the long-term corticosterone treatment in the drinking water (David, Samuels et al. 2009), ii- the peripheral administration of LPS (O'Connor, Lawson et al. 2009) iii- the ApN^-/- mice (Liu, Guo et al. 2012). For chronic AdipoRon treatment, the experimental protocol was as followed: • i- Five weeks old male mice (five/cage) received corticosterone (35mg/L dissolved in tap water containing 4 g/L CD) or vehicle alone ad libitum for during 7 consecutive weeks (David, Samuels et al. 2009). Corticosterone and vehicle solutions were changed every 3 days to prevent possible degradation. Additionally, during the last three weeks of corticosterone treatment, mice were daily intraperitoneally (ip) injected with AdipoRon (1mg/kg in 2.5% DMSO) or vehicle alone. • ii- Eight weeks old male mice daily ip injected with AdipoRon or vehicle as described above for twenty consecutive days. One day prior behavioral testing, mice were injected ip with LPS (0.83 mg/kg) or saline solution; the LPS dose was selected on the basis of its ability to induce the full spectrum of the acute sickness and depressive-like behaviors (Lestage, Verrier et al. 2002)."}, "[2]": {"test_system": "hippocampal neurogenesis", "assay": "Hippocampal neurogenesis (BrdU-positive cells in dentate gyrus)", "format": "in vivo, mice", "conditions": "chronic AdipoRon"}, "[3]": {"assay": "Kinetic of AdipoRon in plasma and brain areas by HPLC coupled to MS/MS", "format": "in vivo", "conditions": "for time of highest level of AdipoRon post ip injection: 1mg/kg ip; for level of AdipoRon: 3-hours post ip injection, 1mg/kg"}, "[4]": {"test_system": "serotonin pathway", "assay": "5-HT and 5-HIAA levels in dorsal raphe nucleus", "format": "in vivo", "conditions": "corticosterone-exposed mice, chronic AdipoRon"}, "[5]": {"test_system": "neurons of dorso-median raphe nucleus", "assay": "Whole-cell patch-clamp recordings on brain slices, current clamp", "format": "cell-based, mouse"}, "[6]": {"test_system": "wt and depression-like mouse models", "assay": "Forced Swimming test (FST), acute administration", "format": "in vivo, mice"}, "[7]": {"molecular_target": "T1, AdipoRl (Homo sapiens, UniProt Q96A54)", "T1 sequence (Q96A54 1-375)": "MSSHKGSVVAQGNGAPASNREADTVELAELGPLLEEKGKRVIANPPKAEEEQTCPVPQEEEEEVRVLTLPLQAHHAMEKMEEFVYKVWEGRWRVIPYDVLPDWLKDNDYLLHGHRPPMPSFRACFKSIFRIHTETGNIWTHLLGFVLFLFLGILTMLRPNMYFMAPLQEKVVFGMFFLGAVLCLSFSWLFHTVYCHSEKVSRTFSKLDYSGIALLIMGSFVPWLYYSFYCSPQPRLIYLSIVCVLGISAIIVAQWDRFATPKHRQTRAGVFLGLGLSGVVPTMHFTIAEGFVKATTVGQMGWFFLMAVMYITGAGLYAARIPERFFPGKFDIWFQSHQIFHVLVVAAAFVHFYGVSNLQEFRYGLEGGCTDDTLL", "conditions": "Okada-Iwabu, Yamauchi et al. 2013; cited from earlier work"}, "[8]": {"molecular_target": "T2, AdipoR2 (Homo sapiens, UniProt Q86V24)", "T2 sequence (Q86V24 1-386)": "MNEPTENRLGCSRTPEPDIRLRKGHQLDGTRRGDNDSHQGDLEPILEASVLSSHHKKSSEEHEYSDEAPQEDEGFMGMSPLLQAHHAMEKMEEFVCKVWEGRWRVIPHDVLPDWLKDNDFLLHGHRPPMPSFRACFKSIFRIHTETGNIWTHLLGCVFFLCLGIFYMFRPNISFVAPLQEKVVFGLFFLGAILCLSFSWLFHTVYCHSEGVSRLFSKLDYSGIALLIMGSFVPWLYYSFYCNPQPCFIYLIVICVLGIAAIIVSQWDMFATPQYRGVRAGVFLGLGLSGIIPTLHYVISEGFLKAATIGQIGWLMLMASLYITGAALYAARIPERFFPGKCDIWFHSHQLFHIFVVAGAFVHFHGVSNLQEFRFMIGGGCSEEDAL", "conditions": "Okada-Iwabu, Yamauchi et al. 2013; cited from earlier work"}},
  "data": [
    {"compound": "O=C(COc1ccc(C(=O)c2ccccc2)cc1)NC1CCN(Cc2ccccc2)CC1", "note": "[AdipoRon, 2-(4-Benzoylphenoxy)-N-[1-(phenylmethyl)-4-piperidinyl]-acetamide]", "values": [
      {"measurement": "food and water intake", "setting": "[1]", "result": "did not significantly modify"},
      {"measurement": "weight of mice", "setting": "[1]", "result": "did not significantly modify"},
      {"measurement": "hippocampal neurogenesis rate (BrdU-positive nuclei in dentate gyrus)", "setting": "[2]; control conditions (no corticosterone)", "result": "without modifying neurogenesis"},
      {"measurement": "hippocampal neurogenesis rate (BrdU-positive nuclei in dentate gyrus)", "setting": "[2]; long-term corticosterone-treated mice, 21-days post-BrdU injections", "result": "reversed the deleterious effect of corticosterone"},
      {"measurement": "time of highest level of AdipoRon post ip injection", "setting": "[3]; hippocampus", "result": "thirty"},
      {"measurement": "level of AdipoRon", "setting": "[3]; hippocampus", "result": "barely detectable"},
      {"measurement": "time of highest level of AdipoRon post ip injection", "setting": "[3]; hypothalamus", "result": "thirty"},
      {"measurement": "level of AdipoRon", "setting": "[3]; hypothalamus", "result": "barely detectable"},
      {"measurement": "blood-brain barrier (BBB) crossing", "setting": "[3]; ip injection, mice", "result": "crosses the BBB"},
      {"measurement": "time of highest level of AdipoRon post ip injection", "setting": "[3]; plasma", "result": "thirty"},
      {"measurement": "level of AdipoRon", "setting": "[3]; plasma", "result": "barely detectable"},
      {"measurement": "5-HT level", "setting": "[4]", "result": "without modifying the 5-HT level"},
      {"measurement": "level of 5-HIAA", "setting": "[4]", "result": "increased the level of 5-HIAA"},
      {"measurement": "ratio 5-HIAA/5-HT", "setting": "[4]", "result": "threefold increase"},
      {"measurement": "action potential discharge", "setting": "[5]; 1/7 presumed serotoninergic neuron, current clamp", "result": "no effect"},
      {"measurement": "membrane potential", "setting": "[5]; 6 out of 7 presumed serotoninergic neurons, current clamp", "result": "small depolarization"},
      {"measurement": "action potential discharge frequency", "setting": "[5]; 6 out of 7 presumed serotoninergic neurons, current clamp, N= 4 mice", "result": "increase in action potential discharge frequency"},
      {"measurement": "membrane potential", "setting": "[5]; presumed non-serotoninergic neurons, 2/4", "result": "hyperpolarization"},
      {"measurement": "membrane potential", "setting": "[5]; presumed non-serotoninergic neurons, the other 2/4", "result": "no effect"},
      {"measurement": "immobility time in the FST", "setting": "[6]; ApN-/- mice, 0.5mg/kg ip, one-hour post injection", "result": "remained inefficient"},
      {"measurement": "immobility time in the FST", "setting": "[6]; ApN-/- mice, 1mg/kg per os (gavage), one-hour before FST", "result": "reduced the immobility time"},
      {"measurement": "immobility time in the FST", "setting": "[6]; ApN-/- mice, 5mg/kg ip, one-hour post injection", "result": "decreased the immobility time"},
      {"measurement": "immobility time in the FST", "setting": "[6]; C57BL/6J wt mice, 1mg/kg ip, 1h post-injection, vs vehicle", "result": "decreased the immobility time"},
      {"measurement": "immobility time in the FST", "setting": "[6]; C57BL/6J wt mice, 1mg/kg ip, 3h post-injection, vs vehicle", "result": "no significant effect"},
      {"measurement": "immobility time in the FST", "setting": "[6]; corticosterone-treated mice, 0.5mg/kg ip, one-hour post injection", "result": "significantly reduced the immobility time"},
      {"measurement": "immobility time in the FST", "setting": "[6]; corticosterone-treated mice, 5mg/kg ip, one-hour post injection", "result": "decreased the immobility time"},
      {"measurement": "immobility time in the FST", "setting": "[6]; wt mice, 0.5mg/kg ip, one-hour post injection", "result": "significantly reduced the immobility time"},
      {"measurement": "immobility time in the FST", "setting": "[6]; wt mice, 1mg/kg per os (gavage), one-hour before FST", "result": "reduced the immobility time"},
      {"measurement": "immobility time in the FST", "setting": "[6]; wt mice, 5mg/kg ip, one-hour post injection", "result": "decreased the immobility time"},
      {"measurement": "binding to adiponectin receptor", "setting": "[7]", "result": "bind"},
      {"measurement": "binding to adiponectin receptor", "setting": "[8]", "result": "bind"}
    ]}
  ]
}
